Key:
cells = conditions: Homo sapiens, SH-SY5Y
Description: Antagonist activity at calcium channel expressed in SH-SY5Y cells assessed as blockade of potassium-induced calcium influx increase at 0.3 uM relative to control

SH-SY5Y = assay: cells; conditions: Homo sapiens, read-out: Activity
Description: Viability of SH-SY5Y cells measured as neuroprotection activity in presence of H2O2 at 0.3 uM relative to control

Cholinesterase = Cholinesterase (Homo sapiens, UniProt P06276)
Description: Inhibition of human serum BuChE

Acetylcholinesterase [1] = target: Acetylcholinesterase (Homo sapiens, UniProt P22303)
Description: Inhibition of human erythrocyte AChE

Acetylcholinesterase [2] = target: Acetylcholinesterase (Electrophorus electricus, UniProt O42275)
Chain of Acetylcholinesterase (Electrophorus electricus, UniProt O42275) (O42275 whole entry): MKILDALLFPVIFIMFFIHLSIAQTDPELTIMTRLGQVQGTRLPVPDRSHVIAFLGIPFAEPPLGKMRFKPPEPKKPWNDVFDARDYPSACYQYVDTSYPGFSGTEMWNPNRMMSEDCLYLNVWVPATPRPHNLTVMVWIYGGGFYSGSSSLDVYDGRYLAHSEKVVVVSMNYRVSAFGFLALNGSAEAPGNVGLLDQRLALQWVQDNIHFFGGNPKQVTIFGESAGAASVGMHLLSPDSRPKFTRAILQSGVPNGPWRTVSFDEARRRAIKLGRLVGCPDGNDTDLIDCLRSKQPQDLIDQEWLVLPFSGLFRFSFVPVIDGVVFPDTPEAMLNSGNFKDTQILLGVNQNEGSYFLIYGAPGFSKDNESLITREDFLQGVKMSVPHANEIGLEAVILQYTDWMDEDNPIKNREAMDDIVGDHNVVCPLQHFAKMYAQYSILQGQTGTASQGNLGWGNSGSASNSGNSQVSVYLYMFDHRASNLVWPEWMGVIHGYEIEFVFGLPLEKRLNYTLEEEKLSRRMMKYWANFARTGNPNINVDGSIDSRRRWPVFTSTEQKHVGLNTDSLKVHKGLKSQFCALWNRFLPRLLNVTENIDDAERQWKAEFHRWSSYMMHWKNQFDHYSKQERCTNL
Description: Inhibition of Electrophorus electricus AChE

Chain of Cholinesterase (P06276 whole entry): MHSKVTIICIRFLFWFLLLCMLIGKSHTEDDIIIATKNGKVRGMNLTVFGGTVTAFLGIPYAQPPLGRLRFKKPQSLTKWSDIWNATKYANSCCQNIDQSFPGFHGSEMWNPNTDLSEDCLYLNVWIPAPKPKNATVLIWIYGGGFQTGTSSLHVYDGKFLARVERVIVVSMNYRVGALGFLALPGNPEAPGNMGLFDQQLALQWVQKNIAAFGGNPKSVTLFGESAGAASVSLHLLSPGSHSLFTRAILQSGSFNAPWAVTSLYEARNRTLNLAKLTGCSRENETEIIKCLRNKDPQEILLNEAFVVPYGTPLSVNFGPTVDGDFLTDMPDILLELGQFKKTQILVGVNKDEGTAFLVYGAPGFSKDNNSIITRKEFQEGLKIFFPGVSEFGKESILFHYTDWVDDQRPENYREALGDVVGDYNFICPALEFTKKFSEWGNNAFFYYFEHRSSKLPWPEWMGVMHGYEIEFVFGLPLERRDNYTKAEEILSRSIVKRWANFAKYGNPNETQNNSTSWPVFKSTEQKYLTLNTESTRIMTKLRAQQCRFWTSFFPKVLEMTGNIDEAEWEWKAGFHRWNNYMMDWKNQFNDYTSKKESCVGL
Chain of Acetylcholinesterase (Homo sapiens, UniProt P22303) (P22303 whole entry): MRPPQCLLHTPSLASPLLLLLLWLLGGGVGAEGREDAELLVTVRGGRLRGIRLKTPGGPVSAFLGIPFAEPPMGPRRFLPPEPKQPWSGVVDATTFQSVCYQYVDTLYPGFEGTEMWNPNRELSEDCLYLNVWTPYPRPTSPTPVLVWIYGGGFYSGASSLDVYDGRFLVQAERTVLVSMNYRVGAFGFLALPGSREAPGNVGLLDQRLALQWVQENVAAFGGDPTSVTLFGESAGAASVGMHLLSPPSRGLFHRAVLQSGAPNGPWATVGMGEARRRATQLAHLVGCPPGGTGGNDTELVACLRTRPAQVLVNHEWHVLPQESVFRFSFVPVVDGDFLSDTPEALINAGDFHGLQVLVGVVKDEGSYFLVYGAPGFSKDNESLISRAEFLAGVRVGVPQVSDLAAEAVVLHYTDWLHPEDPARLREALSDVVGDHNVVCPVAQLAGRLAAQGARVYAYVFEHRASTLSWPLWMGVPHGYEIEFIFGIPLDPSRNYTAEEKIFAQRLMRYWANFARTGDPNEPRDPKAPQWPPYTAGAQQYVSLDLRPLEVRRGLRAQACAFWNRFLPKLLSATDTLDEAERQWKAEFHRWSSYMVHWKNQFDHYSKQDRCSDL

For `COCCOC(=O)C1=C(C)NC(C)=C(C(=O)OC(C)C)C1c1cccc([N+](=O)[O-])c1` (stereo not drawn) [NIMODIPINE], the inhibition at 0.3 µM (cells) was 45.5% and the viability at 0.3 µM (SH-SY5Y) was 36%.

For `CCOC(=O)C1=C(C)Nc2nc3c(c(N)c2C1c1ccc(C)cc1)CCCC3` (stereo not drawn), the IC50 (Cholinesterase) was > 100000 nM, the IC50 (Acetylcholinesterase [1]) was 169 nM and the inhibition at 0.3 µM (cells) was 29.8%. It also gave an IC50 (Acetylcholinesterase [2]) of 91 nM and a viability at 0.3 µM (SH-SY5Y) of 53.7%.

Work on `CCOC(=O)C1=C(C)Nc2nc3c(c(N)c2C1c1cccc(OC)c1)CCCC3` (stereo not drawn) yielded an inhibition at 0.3 µM (cells) of 31%.

For `CCOC(=O)C1=C(C)Nc2nc3c(c(N)c2C1c1ccccc1)CCCC3` (stereo not drawn), the IC50 (Cholinesterase) was > 100000 nM, the IC50 (Acetylcholinesterase [1]) was 122 nM and the inhibition at 0.3 µM (cells) was 36.6%. It also gave an IC50 (Acetylcholinesterase [2]) of 80 nM and a viability at 0.3 µM (SH-SY5Y) of 30.6%.

For `CCOC(=O)C1=C(C)Nc2nc3c(c(N)c2C1c1ccc(F)cc1)CCCC3` (stereo not drawn), the inhibition at 0.3 µM (cells) was 22.2%.

Molecule `CCOC(=O)C1=C(C)Nc2nc3c(c(N)c2C1c1cccc([N+](=O)[O-])c1)CCCC3` (stereo not drawn) has an inhibition at 0.3 µM (cells) of 33.6%.

Work on `CCOC(=O)C1=C(C)Nc2nc3c(c(N)c2C1c1ccc(OC)cc1)CCCC3` (stereo not drawn) yielded an inhibition at 0.3 µM (cells) of 32.8%.

`CCOC(=O)C1=C(C)Nc2nc3c(c(N)c2C1c1ccccc1OC)CCCC3` (stereo not drawn) gave an inhibition at 0.3 µM (cells) of 46.5%.

In the case of `CCOC(=O)C1=C(C)Nc2nc3c(c(N)c2C1c1ccc([N+](=O)[O-])cc1)CCCC3` (stereo not drawn), the IC50 (Cholinesterase) is reported as 34400 nM, the IC50 (Acetylcholinesterase [1]) is reported as 309 nM and the inhibition at 0.3 µM (cells) is reported as 66.7%. For the same molecule, the IC50 (Acetylcholinesterase [2]) was 600 nM and the viability at 0.3 µM (SH-SY5Y) was 35.5%.

`CCOC(=O)C1=C(C)Nc2nc3c(c(N)c2C1c1ccccc1[N+](=O)[O-])CCCC3` (stereo not drawn) gave an inhibition at 0.3 µM (cells) of 32.6%.

Source: ChEMBL document CHEMBL1138213, “Novel multipotent tacrine-dihydropyridine hybrids with improved acetylcholinesterase inhibitory and neuroprotective activities as potential drugs for the treatment of Alzheimer's disease” (J Med Chem, 2006)
